{"source": "patent US20070203078A1", "about": "“METHOD FOR THE TREATMENT AND DIAGNOSIS OF CERTAIN PSYCHIATRIC DISORDERS RELATED TO THE MENSTRUAL CYCLE” (THE REGENTS OF THE UNIVERSITY OF CALIFORNIA, priority 2004, published 2007)", "origin": "cited, not measured here", "molecular_target": "T1, δ subunit-containing GABAARs (Mus musculus, UniProt P22933)", "T1 construct": "tonic conductance mediated by δ subunit-containing GABAARs in several classes of neurons; host or cells: neurons (cerebellar granule cells, dentate gyrus granule cells and interneurons are named)", "T1 sequence (P22933 25-449)": "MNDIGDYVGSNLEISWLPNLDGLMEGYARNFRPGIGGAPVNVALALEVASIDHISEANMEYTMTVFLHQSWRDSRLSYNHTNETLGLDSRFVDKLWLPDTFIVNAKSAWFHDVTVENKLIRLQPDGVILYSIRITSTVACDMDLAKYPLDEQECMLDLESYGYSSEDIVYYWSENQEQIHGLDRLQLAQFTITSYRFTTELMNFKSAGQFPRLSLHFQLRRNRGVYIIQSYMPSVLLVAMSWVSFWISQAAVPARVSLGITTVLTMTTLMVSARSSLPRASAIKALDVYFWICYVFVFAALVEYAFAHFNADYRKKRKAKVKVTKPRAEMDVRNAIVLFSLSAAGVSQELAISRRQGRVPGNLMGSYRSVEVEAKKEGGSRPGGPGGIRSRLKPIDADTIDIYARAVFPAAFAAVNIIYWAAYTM", "details": "THDOC in the physiological range (10 nM)"}
{"smiles": "C[C@]12CC[C@@H](O)C[C@H]1CC[C@@H]1[C@@H]2CC[C@]2(C)[C@@H](C(=O)CO)CC[C@@H]12", "note": "[THDOC]", "values": [{"measurement": "effect on synaptic currents", "value": "no effect"}, {"measurement": "effect on tonic conductance mediated by δ subunit-containing GABAARs", "setting": "several classes of neurons", "value": "significantly potentiate"}]}
